Tests used:
[1] = for Triple point temperature: Crystal; for mass density: 101.33 kPa, Liquid, Pycnometric method
[2] = molar heat capacity at constant pressure; details: 101.33 kPa, Liquid, Vacuum adiabatic calorimetry
[3] = Molar enthalpy of transition or fusion; details: Crystal; Adiabatic calorimetry

CCCCCCCC[n+]1ccn(C)c1.F[B-](F)(F)F [1-methyl-3-octylimidazolium tetrafluoroborate]
Details | Molar enthalpy of transition or fusion [kcal/mol] | Triple point temperature [K]
[1] | – | 245.75
[3] | 3.513 | –

[2]
Details | molar heat capacity at constant pressure [J/K/mol]
195.88 K | 466.3
197.4 K | 465.8
198.93 K | 465.5
200.46 K | 464.9
202.1 K | 464.6
203.86 K | 464.1
205.61 K | 463.8
207.37 K | 463.5
209.14 K | 463.2
210.91 K | 463.2
212.69 K | 463.2
214.47 K | 463.2
216.25 K | 463.5
218.04 K | 463.5
218.59 K | 463.5
219.83 K | 463.8
220.61 K | 463.8
221.62 K | 464.1
222.57 K | 464.1
223.42 K | 464.4
224.52 K | 464.6
225.22 K | 464.6
226.48 K | 464.9
227.02 K | 464.9
228.43 K | 465.5
228.83 K | 465.5
230.39 K | 466.1
230.63 K | 466.3
232.35 K | 466.3
234.3 K | 466.6
236.26 K | 467.5
238.22 K | 468
240.18 K | 468.6
242.14 K | 469.4
244.1 K | 470.3
246.06 K | 470.8
247.53 K | 471.7
248.02 K | 471.7
249.36 K | 472.5
249.99 K | 472.5
251.18 K | 473.1
251.95 K | 473.4
253 K | 473.7
253.91 K | 474.2
254.83 K | 474.5
255.87 K | 475.1
256.65 K | 475.4
257.83 K | 476.2
258.48 K | 476.2
260.3 K | 477.3
262.13 K | 478.2
263.95 K | 479
265.78 K | 480.1
267.6 K | 481
269.43 K | 482.1
271.26 K | 483
273.08 K | 483.8
274.91 K | 484.6
276.74 K | 486.1
278.57 K | 486.9
280.39 K | 488
282.22 K | 488.9
284.05 K | 490
285.87 K | 490.8
287.7 K | 492
289.53 K | 493.1
291.35 K | 494.2
293.18 K | 495.1
295 K | 496.2
296.83 K | 497.3
298.65 K | 498.2
300.48 K | 499.3
302.36 K | 500.4
304.29 K | 501.6
306.22 K | 502.7
308.16 K | 503.8
310.09 K | 504.9
312.02 K | 505.8
313.95 K | 507.2
315.89 K | 508.3
317.82 K | 509.4
319.75 K | 510.6
321.68 K | 512
323.62 K | 513.1
325.55 K | 514.2
327.48 K | 515.1
329.41 K | 516.5
331.34 K | 517.9
333.27 K | 519.3
335.19 K | 520.4
337.12 K | 521.8
339.05 K | 523
340.97 K | 524.4
342.9 K | 525.5
344.82 K | 526.6
346.75 K | 528
348.68 K | 529.5
350.6 K | 530.9
352.53 K | 532.3
354.45 K | 533.4
356.38 K | 534.8
358.3 K | 535.9
360.22 K | 537.3
362.14 K | 539
364.06 K | 539.9
365.98 K | 541.3
367.89 K | 542.7

CCC[n+]1ccn(C)c1.[Br-] [1-methyl-3-propylimidazolium bromide]
Details | mass density [kg/m3] | molar heat capacity at constant pressure [J/K/mol]
[1], 302.71 K | 1355.9 | –
[1], 307.7 K | 1352.4 | –
[1], 312.7 K | 1348.9 | –
[1], 317.71 K | 1345.4 | –
[1], 322.7 K | 1341.9 | –
[1], 327.7 K | 1338.5 | –
[1], 332.7 K | 1335 | –
[1], 337.69 K | 1331.6 | –
[1], 342.68 K | 1328.2 | –
[1], 347.68 K | 1324.9 | –
[1], 352.67 K | 1321.6 | –
[1], 357.67 K | 1318.3 | –
[2], 222.57 K | – | 260
[2], 224.61 K | – | 260.5
[2], 226.66 K | – | 260.8
[2], 228.71 K | – | 261.3
[2], 230.76 K | – | 261.7
[2], 232.81 K | – | 262.1
[2], 234.85 K | – | 262.7
[2], 236.9 K | – | 263.1
[2], 238.95 K | – | 263.5
[2], 241 K | – | 264
[2], 243.05 K | – | 264.4
[2], 245.1 K | – | 264.9
[2], 247.15 K | – | 265.4
[2], 249.2 K | – | 266
[2], 251.25 K | – | 266.5
[2], 253.31 K | – | 267.1
[2], 255.36 K | – | 267.6
[2], 257.41 K | – | 268.2
[2], 259.46 K | – | 268.8
[2], 261.51 K | – | 269.5
[2], 263.56 K | – | 270
[2], 265.62 K | – | 270.6
[2], 267.67 K | – | 271.2
[2], 269.72 K | – | 271.8
[2], 271.77 K | – | 272.5
[2], 273.82 K | – | 273.2
[2], 275.87 K | – | 273.8
[2], 277.92 K | – | 274.5
[2], 279.98 K | – | 275.1
[2], 282.03 K | – | 275.8
[2], 284.08 K | – | 276.4
[2], 286.13 K | – | 277
[2], 288.18 K | – | 277.8
[2], 290.23 K | – | 278.4
[2], 292.28 K | – | 279.1
[2], 294.33 K | – | 279.7
[2], 296.39 K | – | 280.4
[2], 298.44 K | – | 281
[2], 300.49 K | – | 281.7
[2], 302.54 K | – | 282.4
[2], 304.59 K | – | 283
[2], 306.64 K | – | 283.7
[2], 308.7 K | – | 284.4
[2], 310.75 K | – | 285
[2], 312.8 K | – | 285.7
[2], 314.85 K | – | 286.4
[2], 316.91 K | – | 287.1
[2], 318.96 K | – | 287.7
[2], 321.01 K | – | 288.5
[2], 323.07 K | – | 289.2
[2], 325.12 K | – | 289.8
[2], 327.18 K | – | 290.6
[2], 329.23 K | – | 291.4
[2], 331.28 K | – | 292.1
[2], 333.34 K | – | 292.9
[2], 335.39 K | – | 293.6
[2], 337.45 K | – | 294.3
[2], 339.5 K | – | 295.1
[2], 341.56 K | – | 295.9
[2], 343.61 K | – | 296.7
[2], 345.67 K | – | 297.3
[2], 347.73 K | – | 298.2
[2], 349.78 K | – | 299.2
[2], 351.84 K | – | 299.9
[2], 353.9 K | – | 300.7
[2], 355.95 K | – | 301.4
[2], 358.01 K | – | 302.2
[2], 360.06 K | – | 303.1
[2], 362.12 K | – | 303.8
[2], 364.17 K | – | 304.6
[2], 366.23 K | – | 305.4
[2], 368.28 K | – | 306.3

Details | Molar enthalpy of transition or fusion [kcal/mol] | Triple point temperature [K]
[1] | – | 309.56
[3] | 4.589 | –

From the NIST ThermoML archive (doi:10.1021/je900974u)
